A short description of assay [1]: Dd2 parasite growth inhibition in erythrocytes – SYBR Green, dry powder samples, set 4, dose response (AID 1159572). Format: functional, cell-based.
Assay [2] in a line: Dd2 parasite growth inhibition in erythrocytes – SYBR Green, dry powder samples, set 9, dose response (AID 1159568). Format: functional, cell-based.
Assay [3] is described as follows: Plasmodium falciparum Dd2 Sybr green parasite growth Measured in Cell-Based and Microorganism Combination System Using Plate Reader - 2153-01_Inhibitor_Dose_DryPowder_Activity_Set3. Format: functional.
A short description of assay [4]: toxicity to human hepatoma HepG2 cells – cell-based, cherry-picked samples, cytotoxicity control, dose response (AID 1159577). The format is functional.
Assay [5] is described as follows: growth inhibition of PfATP4-mutant resistant parasites – NITD609-resistant line, SYBR Green, dry powder, dose response (AID 1159571).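 Note: parasites synchronized at ring stage by sorbitol before testing.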 The format is functional, cell-based.
The nature of assay [6]: Dd2 malaria parasite growth inhibition potency – SYBR Green, dry powder samples, dose response (AID 1159566).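 Note: potency for growth inhibition with lower SYBR green DNA signal.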 The format is functional, cell-based.
Assay [7] is described as follows: P. falciparum Dd2 growth inhibitors, dose response, SYBR Green, cherry-picked samples (AID 1159567). Format: functional, cell-based.
Assay [8] in a line: growth inhibition of yeast DHODH-expressing 3D7 parasites – SYBR Green, dry powder samples, dose response (AID 1159570).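 Note: parasite growth measured after 72 hours of compound exposure.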 The format is functional, cell-based.
Assay [9] in a line: IC50 of insulin release inhibition, rat insulinoma INS-1E line, 5 mM glucose, cell-based (AID 1117331). Format: functional.
Assay [10] is described as follows: rise of 4N DNA cells, HeLa – IC50, dose response (AID 1117351). Format: functional, cell-based.
Assay [11] is described as follows: rise of 2N DNA cells, HeLa – IC50, dose response (AID 1117349). The format is functional, cell-based.
The nature of the next assay: cells. Format: functional, cell-based. The following applies: INS-1E.
Assay [12] in a line: Reduced DLD-1 viability, concentration-response, CellTiter-Glo luminescence (AID 1117352). Format: functional.
Assay [13] is described as follows: SNU-C1 cell viability reduction, dose response, CellTiter-Glo luminescence (AID 1117323). The format is functional, cell-based. In general terms: ATP-based viability assays read luminescence as a measure of living cells.
A short description of assay [14]: CellTiter-Glo luminescence survival assay, SW480 colon tumor line, concentration-response curve, half-maximal inhibitory concentration (AID 1117338). The format is functional.
Assay [15] is described as follows: cytotoxicity toward HCT116 cells – cell-based, CellTiter-Glo luminescence, IC50, dose response (AID 1117332). Format: functional. To be noted: HCT-116.
The nature of assay [16]: cytotoxicity toward HT-29 cells – cell-based, CellTiter-Glo luminescence, IC50, dose response (AID 1117330). Format: functional.
A short description of assay [17]: RKO cell viability reduction, dose response, CellTiter-Glo luminescence (AID 1117322). Format: functional.
Assay [18] in a line: cytotoxicity toward Colo320 cells – cell-based, CellTiter-Glo luminescence, IC50, dose response (AID 1117334). Format: functional. To be noted: COLO 320.

SMILES strings stand for the structures. Calls of active or inactive are those of the source.

Broadly, the AC50 is the concentration at which the activity in the assay is half-maximal. As a reminder, the IC50 is the midpoint of a concentration-inhibition curve.

For the compound `COc1ccc2c3c([nH]c2c1)[C@H](CO)N(C(C)=O)CC31CCN(S(=O)(=O)c2cccs2)CC1`, the AC50 in assay [1] is 8.2 µM (active).

As to `CCCNC(=O)N1[C@H](C#N)[C@H](c2ccc(-c3ccccc3F)cc2)[C@H]1CO`, the concentration at half-maximal activity (AC50) in assay [2] is 0.0988 µM (active); in assay [3] it was 0.0589 µM (active); in assay [4], > 42 µM (inactive); in assay [5], 0.0114 µM (active); in assay [6], 0.00986 µM (active); in assay [7], < 0.35 µM (active). For the same compound, the AC50 in assay [8] was 14.9 µM (active).

In the case of `CC(CC1c2ccccc2CCc2ccccc21)CN(C)C` (centres undefined) [BUTRIPTYLINE], the 50% inhibitory concentration (IC50) in assay [9] is 3.64 µM (active); in assay [10] it was > 10 µM (inactive); in assay [11], > 10 µM (inactive); in “cells” it was > 33.3 µM (inactive).

Turning to `CCCCCCOc1ccccc1C(N)=O` [EXALAMIDE], the IC50 in assay [12] was 8.67 µM (inactive); in assay [13], 9.36 µM (inactive); in assay [14], > 20 µM (inactive); in assay [15], > 6.67 µM (inactive); in [16], > 20 µM (inactive); in [17], > 6.67 µM (inactive). Moreover, the IC50 in [18] is > 20 µM (inactive).
